The nature of the data set: Δ-9-tetrahydrocannabinol content in milk of a dairy cow fed hemp blossoms. The class given is in vivo. As to conditions: dairy cow fed 14 kg/day feed in two rations, 50 g ensiled hemp blossoms per ration; milk samples one week after initiation of feeding plan. The source says: A dairy cow with a medium milk production was fed over a time period of two weeks with a daily feed amount of 14 kg/day, divided up into two rations, 50 g of hemp blossoms having been added to each ration. The hemp blossoms used consisted of the upper part of pistillate hemp plants which were harvested in a way analogous to that employed for harvesting corn. The material was processed by a corn chaff cutter and underwent an ensilage step. The rest of the fodder was normal cattle feed (Total Mix Ratio, TMR) as is commonly provided in agriculture to cows for milk production. The content of Δ-9-tetrahydrocannabinol active substance in milk samples obtained one week after initiation of the feeding plan was determined to be 0.15 mg/l and 0.63 mg/l. The measurements were carried out in an accredited laboratory (Swiss testing STS 017, EN 45001, GMP).

SMILES strings stand for the structures. Values joined by “and” are separate entries in the source; they are usually repeats but may differ in a detail not shown here. Identical values can stand only once.

These results are taken from patent US20030194450A1, “Method of producing a preparation containing active substances from cannabis” (priority 2002, published 2003).

For the molecule `CCCCCc1cc(O)c2c(c1)OC(C)(C)[C@@H]1CCC(C)=C[C@@H]21` [Δ-9-tetrahydrocannabinol], the “content of Δ-9-tetrahydrocannabinol active substance in milk samples” value is 0.15 mg/L and 0.63 mg/L.
